What was measured:
[1] = tested on: transformed 208Fsrc3 cells; test: apoptosis induction mediated by added myeloperoxidase (MPO); type: cell-based, rat; settings: 200 mU/ml MPO; 100 U/ml catalase, 50 mM taurine, 10 mM mannitol; 5 hours
Description: Instead of the autocrine apoptosis induction illustrated in Example 1, in the experiment illustrated in Example 2 the HOCl signalling pathway is accelerated by addition of exogenous MPO (FIG. 2A) or the NO/peroxynitrite pathway is induced by addition of the rapidly decomposing NO donor DEA NONOate.
12 500 transformed 208Fsrc3 cells per preparation (96 hole plate, 100 μl medium) were sown. Under A these also received 200 mU/ml MPO, and under B additionally 1.5 mM DEA NONOate. Control preparations remained free of MPO or DEA NONOate. In Part A additionally 100 U/ml catalase (KAT), 50 mM taurine (TAU), and 10 mM mannitol (MANN) were used.
In FIG. 2B the addition took place of 25 μM of the catalytically effective peroxynitrite destroyer FeTPPS. The duplicate preparations under A were assessed after 5 hours, and those under B after just 3 hours. […] The inhibitors confirm the involvement of hydrogen peroxide (inhibition by catalase), HOCl (inhibition by taurine), and hydroxyl radicals (inhibition by mannitol). Again a bell curve was obtained, the right part of which is dependent upon the availability of HOCl and the effect of hydroxyl radicals.

NO dioxygenase (NOD) = test: inhibition of NO dioxygenase (DEA NONOate-dependent apoptosis in MKN-45 cells); type: cell-based; settings: for effect on available NO concentration (NOD inhibition): as Example 10, 3 hours; for available NO concentration through inhibition of the NOD: broad concentration range
Description: This test is based on the fact that NOD also effectively converts exogenously added NO into nitrate and thus in suitable cell systems (such as for example the tumour cell line MKN-45) can prevent apoptosis induction by NO/peroxynitrite.
This rules out a test substance having an influence over the reaction as a whole, through modulation of the catalase activity. The hydrogen peroxide released following the catalase inhibition is fully decomposed by 20-25 μM of the catalase mimetic EUK-134 (similar to the abovementioned EUK-8, but with a lower peroxidise activity). In this way both the HOCl pathway and the consumption of NO by hydrogen peroxide are prevented. For the modulation of the available NO concentration with the known mechanisms now only the NOD remains. If this is inhibited then the addition of exogenous NO leads to an increased apoptosis induction.
12 500 MKN-45 cells in 100 μl Medium had 200 mM 3-AT, 2.4 mM NAME, 25 μM EUK-134 and the stated concentrations of epothilone B (“EPO”) added. […] Then the stated concentrations of the NO donor DEANONOate were added and the preparations were incubated for a further 2 hours at 37° C. before the percentages of apoptotic cells were determined.
The experiment was carried out in the same way as described in FIG. 10, but with the difference that the stated concentrations of DADS (FIG. 11A) or Taxol (FIG. 11B) were used and the determination of the apoptotic cells took place after 3 hours.

MKN-45 cells = test: apoptosis induction in MKN-45 tumour cells, single substances and combinations; type: cell-based
Description: 12 500 MKN-45 cells in 100 μl medium were prepared with the stated concentrations of arginine in combination with 0.2 or 20 μM resveratrol. Control preparations received arginine at between 0 and 5 mM, but remained free of resveratrol. After 4.5 hours the percentages of apoptotic cells were determined (duplicate preparations).
In addition, 25 μM caspase-8 inhibitor were added or not added to the stated combinations of arginine and resveratrol. Assessment after 4.5 hours.
12 500 MKN-45 cells in 100 μl had 10 μg/ml Taxol or 0.013 μg/ml Taxol in combination or not with the stated concentrations of resveratrol added. […] After 4.5 hours in duplicate preparations the percentages of apoptotic cells were determined.
12 500 MKN-45 cells in 100 μl medium received either no addition of substances, 25 ng/ml epothilone B, 0.75 ng/ml epothilone B, 25 μg/ml resveratrol or the combination of 0.75 ng/ml epothilone B with 25 μg/ml resveratrol. After 3 hours the percentages of apoptotic cells were determined in duplicate preparations.
12 500 MKN 45 cells in 100 μl medium received none of the stated additives. After 3 hours an assessment was made of the duplicate preparations.

[2] = tested on: transformed rat fibroblast line 208Fsrc3; test: autocrine, ROS mediated apoptosis induction in transformed cells; type: cell-based; settings: 22 hours; for effect on autocrine apoptosis: 50 mM taurine, 150 μM ABH or 10 mM mannitol; for effect of higher SOD concentrations on apoptosis: concentrations above maximum inhibition
Description: 12 500 cells of the transformed rat fibroblast line 208Fsrc3 per 100 μl complete medium were sown in 96 hole plates. Following growth 20 ng/ml TGF-beta-1 were added to all preparations. To the preparations the stated concentrations of Cu SOD (from bovine erythroctes) or Mn SOD (from E. coli) were added. Some of the preparations received 50 mM of the HOCl receptor taurine (TAU), 150 μM of the peroxidase inhibitor 4-aminobenzoylhydrazide (ABH) or 10 mM of the hydroxyl radical scavenger mannitol. After 22 hours the percentages of apoptotic cells were determined on the basis of the conventional apoptosis characteristics of nuclear condensation, nuclear fragmentation or membrane blebbing in each case in duplicate preparations.

[3] = tested on: human lymphoma line Gumbus; test: catalase deactivation of tumour cells (hydrogen peroxide induced apoptosis); type: cell-based; settings: 1.5 hours
Description: 25 000 cells of the human lymphoma line Gumbus/100 μl medium had the stated concentrations of hydrogen peroxide added without 3-AT or in the presence of 50 mM or 100 mM of the catalase inhibitor 3-AT. After 1.5 hours in duplicate preparations the apoptosis induction was determined.
FIG. 14B: Gumbus cells were pre-incubated without Taxol (control) or with 10 μg/ml Taxol for 30 minutes at 37° C. Parallel preparations were either free of further substances or contained 2 mM histidine (singlet oxygen-receptor), 25 μM FeTPPS (catalytically-acting peroxynitrite destroyer) or 25 U/ml catalase (CAT). Following pre-incubation the cells were separated by centrifugation, absorbed in fresh medium and the stated concentrations of hydrogen peroxide added. After 1.5 hours the assessment was performed in the duplicate preparations.

208Fsrc3 cells = test: EUK-8-mediated apoptosis induction, Cu SOD bell curve; type: cell-based, rat
Description: 12 500 208Fsrc3 cells in 100 μl (96 hole plate) had increasing concentrations of Cu SOD added in the presence of 120 μM EUK-8. After 5 hours the percentage of apoptotic cells was determined in duplicate preparations.
The indicated cell counts (208Fsrc3) in 100 μl medium had increasing concentrations of Cu SOD added in the presence of 120 μM EUK-8. After 1.5 hours in duplicate preparations the percentages of apoptotic cells were determined. There is a direct dependency between the SOD concentration at the vertex and the number of cells per preparation. Since this in turn determines the total concentration of available superoxide anions, there is a correlation between SOD concentration at the vertex and the superoxide anions concentration achieved.

[4] = tested on: extracellular superoxide anion production of MKN-45 cells; test: extracellular superoxide anion production of MKN-45 cells (Cu SOD bell curve shift); type: cell-based; settings: for stimulation of the NADPH oxidase: higher concentration range of the substances

Molecule: catalase
- effect on MPO-mediated apoptosis (HOCl pathway) [1]: inhibition

Molecule: C=CCSSCC=C [DADS, diallyl disulfide]
- effect on available NO concentration (NOD inhibition) (NO dioxygenase (NOD)): led to an increase in the available NO concentration

Molecule: Oc1cc(O)c2cc(O)c(-c3ccc(O)c(O)c3)[o+]c2c1.[Cl-] [cyanidin chloride]
- dependence of the effect on caspase-8 (MKN-45 cells; high cyanidin chloride concentration, 3 hours): dependent upon caspase-8

Molecule: N=C(N)NCCC[C@H](N)C(=O)O [arginine]
- apoptosis induction by arginine alone (MKN-45 cells): concentration-dependent apoptosis induction
- dependence of apoptosis on caspase-8 / FAS (MKN-45 cells): strictly dependent upon the involvement of a caspase-8-mediated step

Molecule: NCCS(=O)(=O)O [taurine]
- effect on autocrine apoptosis [2]: completely inhibited
- effect on MPO-mediated apoptosis (HOCl pathway) [1]: inhibition

Molecule: NNC(=O)c1ccc(N)cc1 [ABH, 4-aminobenzoylhydrazide]
- effect on autocrine apoptosis [2]: completely inhibited

Molecule: Nc1nc[nH]n1 [3-AT, 3-aminotriazole]
- effect on catalase protection against exogenous hydrogen peroxide ([3]; 50 mM or 100 mM 3-AT): can be reversed

Molecule: Cu SOD: Cu-containing superoxide dismutase from bovine erythroctes
- effect of higher SOD concentrations on apoptosis [2]: renewed increase in the apoptosis
- effect of Cu SOD on EUK-8-mediated apoptosis (208Fsrc3 cells; 120 μM EUK-8, 12 500 cells, 5 hours): leads to a bell curve
- SOD concentration at the vertex (maximum inhibition) (208Fsrc3 cells; 6 250 cells, 120 μM EUK-8, 1.5 hours): 0.57 U/ml

Molecule: Photofrin
- stimulation of the NADPH oxidase by singlet oxygen ([4]; 1 μg/ml Photofrin exposed to light, 100 mM 3-AT, 5 hours): significant stimulation of the NADPH oxidase

Molecule: CC(=O)O[C@H]1C(=O)[C@@]2(C)[C@H]([C@H](OC(=O)c3ccccc3)[C@]3(O)C[C@H](OC(=O)[C@H](O)[C@@H](NC(=O)c4ccccc4)c4ccccc4)C(C)=C1C3(C)C)[C@]1(OC(C)=O)CO[C@@H]1C[C@@H]2O [Taxol]
- stimulation of the NADPH oxidase compared with epothilone B ([4]; data not shown): behaves in the same way
- stimulation of the NADPH oxidase [4]: simultaneous stimulation of the NADPH oxidase
- effect on available NO concentration (NOD inhibition) (NO dioxygenase (NOD)): led to an increase in the available NO concentration
- available NO concentration through inhibition of the NOD (NO dioxygenase (NOD)): increase in the available NO concentration
- apoptosis induction (MKN-45 cells; 0.013 μg/ml Taxol alone, 4.5 hours): induced no apoptosis
- apoptosis induction (MKN-45 cells; 10 μg/ml Taxol alone, 4.5 hours): clear apoptosis induction
- effect on catalase protection against exogenous hydrogen peroxide ([3]; pre-incubation with 10 μg/ml Taxol for 30 minutes, washed): has the same effect as 3-AT

Molecule: C=CCN=C=S [allyl isothiocyanate]
- stimulation of the NADPH oxidase [4]: simultaneous stimulation of the NADPH oxidase
- available NO concentration through inhibition of the NOD (NO dioxygenase (NOD)): increase in the available NO concentration

Molecule: Oc1ccc(C=Cc2cc(O)cc(O)c2)cc1 [resveratrol]
- increase in superoxide anion production ([4]; 4 or 20 μg/ml resveratrol, 120 μM EUK-8, 4 hours): 8-16 times
- inhibitory capability of the NOD (NO dioxygenase (NOD); data not shown): no indications of an inhibitory capability of the NOD
- apoptosis induction (MKN-45 cells; 25 μg/ml resveratrol alone, 3 hours): neither the low epothilone B concentration nor resveratrol on its own was able to induce apoptosis
- apoptosis induction by resveratrol alone (MKN-45 cells; 0.2 or 20 μM resveratrol, 4.5 hours): little more than background apoptosis
- apoptosis induction (MKN-45 cells; each stated concentration of resveratrol alone, 4.5 hours): induced no apoptosis

Molecule: C/C(=C\c1csc(C)n1)[C@@H]1C[C@@H]2O[C@]2(C)CCC[C@H](C)[C@H](O)[C@@H](C)C(=O)C(C)(C)[C@@H](O)CC(=O)O1 [epothilone B]
- effect on superoxide anion production [4]: did not demonstrate any effect
- stimulation of the NADPH oxidase [4]: simultaneous stimulation of the NADPH oxidase
- increase in superoxide anion production ([4]; highest concentration of epothilone B, 150 mM 3-AT, 8 hours): fourfold
- effect on DEA NONOate-dependent apoptosis (NOD inhibition) (NO dioxygenase (NOD); all concentrations used, 200 mM 3-AT, 2.4 mM NAME, 25 μM EUK-134, 2 hours): led to an increase in the DEA-NONOATE-dependent apoptosis
- available NO concentration through inhibition of the NOD (NO dioxygenase (NOD)): increase in the available NO concentration
- apoptosis induction (MKN-45 cells; 0.75 ng/ml epothilone B alone, 3 hours): neither the low epothilone B concentration nor resveratrol on its own was able to induce apoptosis

Molecule: OC[C@@H](O)[C@@H](O)[C@H](O)[C@H](O)CO [mannitol]
- effect on autocrine apoptosis [2]: completely inhibited
- effect on MPO-mediated apoptosis (HOCl pathway) [1]: inhibition

B1: Mn SOD: Mn-containing superoxide dismutase from E. coli (protein, UniProt P00448 2-206, looked up)
Superoxide dismutase [Mn]: SYTLPSLPYAYDALEPHFDKQTMEIHHTKHHQTYVNNANAALESLPEFANLPVEELITKLDQLPADKKTVLRNNAGGHANHSLFWKGLKKGTTLQGDLKAAIERDFGSVDNFKAEFEKAAASRFGSGWAWLVLKGDKLAVVSTANQDSPLMGEAISGASGFPIMGLDVWEHAYYLKFQNRRPDYIKEFWNVVNWDEAAARFAAKK
- effect of higher SOD concentrations on apoptosis [2]: once the maximum inhibition has been reached this is maintained

B2: MPO: exogenous myeloperoxidase (protein, UniProt P05164 165-745, looked up)
Myeloperoxidase: VTCPEQDKYRTITGMCNNRRSPTLGASNRAFVRWLPAEYEDGFSLPYGWTPGVKRNGFPVALARAVSNEIVRFPTDQLTPDQERSLMFMQWGQLLDHDLDFTPEPAARASFVTGVNCETSCVQQPPCFPLKIPPNDPRIKNQADCIPFFRSCPACPGSNITIRNQINALTSFVDASMVYGSEEPLARNLRNMSNQLGLLAVNQRFQDNGRALLPFDNLHDDPCLLTNRSARIPCFLAGDTRSSEMPELTSMHTLLLREHNRLATELKSLNPRWDGERLYQEARKIVGAMVQIITYRDYLPLVLGPTAMRKYLPTYRSYNDSVDPRIANVFTNAFRYGHTLIQPFMFRLDNRYQPMEPNPRVPLSRVFFASWRVVLEGGIDPILRGLMATPAKLNRQNQIAVDEIRERLFEQVMRIGLDLPALNMQRSRDHGLPGYNAWRRFCGLPQPETVGQLGTVLRNLKLARKLMEQYGTPNNIDIWMGGVSEPLKRKGRVGPLLACIIGTQFRKLRDGDRFWWENEGVFSMQQRQALAQISLPRIICDNTGITTVSKNNIFMSNSYPRDFVNCSTLPALNLASWREAS
- effect on MPO-mediated apoptosis (HOCl pathway) [1]: accelerates the HOCl pathway

From patent publication US20160220542A1, “SYNERGISTIC ACTIVITY OF MODULATORS OF THE NO METABOLISM AND OF NADPH OXIDASE IN THE SENSITISATION OF TUMOR CELLS” (Universitaetsklinikum Freiburg, priority 2010, published 2016)
